Test results from ChEMBL document CHEMBL1201862, “PubChem BioAssay data set” (2004).
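The compound was tested at five concentrations on cells cultured in 96-well plates, with a 48-hour exposure period. GI50 is the concentration that inhibits growth by half.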 The source made the active and inactive calls. No stated cut-off is given here; in the data, active = GI50 up to about 1.1 µM and inactive = higher.

Experiments:
Assay in all cases: NCI tumour cell line growth inhibition, 48 h
UACC-257 = tested on: UACC-257
MDA-MB-435 = tested on: MDA-MB-435
SF-539 = tested on: SF-539
NCI-H460 = tested on: NCI-H460
HOP-62 = tested on: HOP-62
BT-549 = tested on: BT-549
CAKI-1 = tested on: CAKI-1
NCI-H23 = tested on: NCI-H23
EKVX = tested on: EKVX
HT-29 = tested on: HT-29
RXF 393 = tested on: RXF 393
HCT-116 = tested on: HCT-116
SN12C = tested on: SN12C
RPMI-8226 = tested on: RPMI-8226
KM12 = tested on: KM12
HCT-15 = tested on: HCT-15
T47D = tested on: T47D
SF-295 = tested on: SF-295
SK-MEL-2 = tested on: SK-MEL-2
LOX IMVI = tested on: LOX IMVI
M14 = tested on: M14
U-251 = tested on: U-251
DU-145 = tested on: DU-145
A549 = tested on: A549
SR = tested on: SR
COLO 205 = tested on: COLO 205
SNB-19 = tested on: SNB-19
NCI/ADR-RES = tested on: NCI/ADR-RES
IGROV-1 = tested on: IGROV-1
K562 = tested on: K562
ACHN = tested on: ACHN
NCI-H226 = tested on: NCI-H226
MCF7 = tested on: MCF7
786-0 = tested on: 786-0
HCC 2998 = tested on: HCC 2998
MOLT-4 = tested on: MOLT-4
MDA-N = tested on: MDA-N
SK-MEL-5 = tested on: SK-MEL-5
UACC-62 = tested on: UACC-62
OVCAR-3 = tested on: OVCAR-3
OVCAR-8 = tested on: OVCAR-8
SK-MEL-28 = tested on: SK-MEL-28
PC-3 = tested on: PC-3
OVCAR-5 = tested on: OVCAR-5
SNB-75 = tested on: SNB-75
MDA-MB-231 = tested on: MDA-MB-231
SW-620 = tested on: SW-620
A498 = tested on: A498
CCRF-CEM = tested on: CCRF-CEM
OVCAR-4 = tested on: OVCAR-4
HOP-92 = tested on: HOP-92
UO-31 = tested on: UO-31
HL-60 = tested on: HL-60
NCI-H522 = tested on: NCI-H522
SF-268 = tested on: SF-268
SK-OV-3 = tested on: SK-OV-3
Malme-3M = tested on: Malme-3M
Hs-578T = tested on: Hs-578T
TK-10 = tested on: TK-10

With `CCOC(=O)c1cn(-c2ccc([N+](=O)[O-])cc2)c(=S)n2c1nc1ccccc12` the GI50 (UACC-257) was 30.7 µM (inactive), the GI50 (MDA-MB-435) was 41.8 µM (inactive) and the GI50 (SF-539) was 32 µM (inactive). For the same molecule, the GI50 (NCI-H460) was 51.5 µM (inactive), the GI50 (HOP-62) was 63.2 µM (inactive) and the GI50 (BT-549) was 35 µM (inactive). The GI50 (CAKI-1) was 42.9 µM (inactive), the GI50 (NCI-H23) was 34.1 µM (inactive) and the GI50 (EKVX) was 53.7 µM (inactive). The GI50 (HT-29) was 26.4 µM (inactive), the GI50 (RXF 393) was 63.5 µM (inactive) and the GI50 (HCT-116) was 31.1 µM (inactive). For the same molecule, the GI50 (SN12C) was 50.1 µM (inactive), the GI50 (RPMI-8226) was 24.6 µM (inactive) and the GI50 (KM12) was 30.1 µM (inactive). The GI50 (HCT-15) was 35.4 µM, the GI50 (T47D) was 58.6 µM (inactive) and the GI50 (SF-295) was 45.6 µM (inactive). The GI50 (SK-MEL-2) was 17.8 µM (inactive), the GI50 (LOX IMVI) was 56.5 µM (inactive) and the GI50 (M14) was 61 µM (inactive). For the same molecule, the GI50 (U-251) was 36.2 µM (inactive), the GI50 (DU-145) was 81.7 µM (inactive) and the GI50 (A549) was 36.7 µM (inactive). The GI50 (SR) was 39.5 µM (inactive), the GI50 (COLO 205) was 23.2 µM (inactive) and the GI50 (SNB-19) was 72.6 µM (inactive). The GI50 (NCI/ADR-RES) was 20.8 µM (inactive), the GI50 (IGROV-1) was 54.1 µM (inactive) and the GI50 (K562) was 46.5 µM (inactive). The GI50 (ACHN) was 32 µM (inactive), the GI50 (NCI-H226) was 37.2 µM (inactive) and the GI50 (MCF7) was 33.2 µM (inactive). The GI50 (786-0) was 30.1 µM (inactive), the GI50 (HCC 2998) was 23.1 µM (inactive) and the GI50 (MOLT-4) was 28 µM (inactive). The GI50 (MDA-N) was 39.7 µM (inactive), the GI50 (SK-MEL-5) was 21.9 µM (inactive) and the GI50 (UACC-62) was 31.8 µM (inactive). For the same molecule, the GI50 (OVCAR-3) was 53.7 µM (inactive), the GI50 (OVCAR-8) was 35.5 µM (inactive) and the GI50 (SK-MEL-28) was 49.9 µM (inactive). For the same molecule, the GI50 (PC-3) was 13.6 µM (inactive), the GI50 (OVCAR-5) was > 100 µM (inactive) and the GI50 (SNB-75) was > 100 µM (inactive). The GI50 (MDA-MB-231) was 30.9 µM (inactive), the GI50 (SW-620) was 47 µM (inactive) and the GI50 (A498) was 20.6 µM (inactive). For the same molecule, the GI50 (CCRF-CEM) was 9.84 µM (inactive), the GI50 (OVCAR-4) was 21.6 µM (inactive) and the GI50 (HOP-92) was 18.5 µM (inactive). The GI50 (UO-31) was 1.83 µM (inactive).

`CC1(C)CNC(=O)C2(CCCO2)CNC(C)(C)CNC(=O)C2(CCCO2)CN1` (stereo not drawn) was tested, and the GI50 (UACC-257) was > 10 µM (inactive), the GI50 (MDA-MB-435) was > 10 µM (inactive) and the GI50 (SF-539) was > 10 µM (inactive). For the same molecule, the GI50 (HOP-62) was > 10 µM (inactive), the GI50 (BT-549) was > 10 µM (inactive) and the GI50 (CAKI-1) was > 10 µM (inactive). The GI50 (NCI-H23) was > 10 µM (inactive), the GI50 (HL-60) was > 10 µM (inactive) and the GI50 (HT-29) was > 10 µM (inactive). The GI50 (HCT-116) was > 10 µM (inactive), the GI50 (SN12C) was > 10 µM (inactive) and the GI50 (RPMI-8226) was > 10 µM (inactive). The GI50 (KM12) was > 10 µM (inactive), the GI50 (NCI-H522) was > 10 µM (inactive) and the GI50 (HCT-15) was > 10 µM. For the same molecule, the GI50 (T47D) was > 10 µM (inactive), the GI50 (SF-295) was > 10 µM (inactive) and the GI50 (LOX IMVI) was > 10 µM (inactive). For the same molecule, the GI50 (M14) was > 10 µM (inactive), the GI50 (SF-268) was > 10 µM (inactive) and the GI50 (U-251) was > 10 µM (inactive). For the same molecule, the GI50 (DU-145) was > 10 µM (inactive), the GI50 (A549) was > 10 µM (inactive) and the GI50 (SK-OV-3) was > 10 µM (inactive). The GI50 (SR) was > 10 µM (inactive), the GI50 (COLO 205) was > 10 µM (inactive) and the GI50 (SNB-19) was > 10 µM (inactive). For the same molecule, the GI50 (NCI/ADR-RES) was > 10 µM (inactive), the GI50 (IGROV-1) was > 10 µM (inactive) and the GI50 (K562) was > 10 µM (inactive). For the same molecule, the GI50 (Malme-3M) was > 10 µM (inactive), the GI50 (ACHN) was > 10 µM (inactive) and the GI50 (MCF7) was > 10 µM (inactive). The GI50 (786-0) was > 10 µM (inactive), the GI50 (HCC 2998) was > 10 µM (inactive) and the GI50 (Hs-578T) was > 10 µM (inactive). The GI50 (MOLT-4) was > 10 µM (inactive), the GI50 (SK-MEL-5) was > 10 µM (inactive) and the GI50 (UACC-62) was > 10 µM (inactive). The GI50 (OVCAR-3) was > 10 µM (inactive), the GI50 (OVCAR-8) was > 10 µM (inactive) and the GI50 (SK-MEL-28) was > 10 µM (inactive). For the same molecule, the GI50 (PC-3) was > 10 µM (inactive), the GI50 (OVCAR-5) was > 10 µM (inactive) and the GI50 (SNB-75) was > 10 µM (inactive). The GI50 (MDA-MB-231) was > 10 µM (inactive), the GI50 (TK-10) was > 10 µM (inactive) and the GI50 (SW-620) was > 10 µM (inactive). The GI50 (CCRF-CEM) was > 10 µM (inactive), the GI50 (OVCAR-4) was > 10 µM (inactive) and the GI50 (HOP-92) was > 10 µM (inactive).
